# Measured values from US20220348590A1, “CYCLOOXYGENASE-2 INHIBITORS AND USES THEREOF” (The Board Institute, Inc., priority 2019, published 2022).
# Read-outs that look alike come from different tables or passages of the source.
# Key:
# MDR1 = test: MDR1-MDCKII permeability and efflux; format: in vitro ADME; conditions: dog, MDCK-MDR1
# ovine COX-1 (oCOX-1) = biological target: T1, ovine COX-1 (oCOX-1) (Ovis aries, UniProt P05979); test: LCMS-based COX-1 enzymatic inhibition assay (PGE2 quantification); format: biochemical; conditions: 10 minutes
# T1 construct: purchased Cayman Chemicals (Ann Arbor, Mich.)
# T1 sequence (P05979 25-600): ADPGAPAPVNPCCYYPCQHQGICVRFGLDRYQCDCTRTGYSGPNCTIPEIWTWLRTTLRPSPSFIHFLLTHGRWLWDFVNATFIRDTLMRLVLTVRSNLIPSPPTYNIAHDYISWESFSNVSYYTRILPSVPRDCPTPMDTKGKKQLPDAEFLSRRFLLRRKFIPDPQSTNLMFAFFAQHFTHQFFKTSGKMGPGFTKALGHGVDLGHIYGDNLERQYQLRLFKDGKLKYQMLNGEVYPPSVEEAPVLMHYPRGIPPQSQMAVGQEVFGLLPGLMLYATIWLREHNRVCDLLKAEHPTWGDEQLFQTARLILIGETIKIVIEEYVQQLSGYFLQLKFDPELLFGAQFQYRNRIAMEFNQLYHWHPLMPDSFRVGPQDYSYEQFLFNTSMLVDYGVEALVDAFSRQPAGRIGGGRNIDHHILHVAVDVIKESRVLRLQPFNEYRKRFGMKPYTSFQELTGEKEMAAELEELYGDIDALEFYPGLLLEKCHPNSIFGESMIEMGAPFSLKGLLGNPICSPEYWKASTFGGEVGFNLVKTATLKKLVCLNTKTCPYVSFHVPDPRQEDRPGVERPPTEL
# Method in brief: (§1)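 PGE2 formed from arachidonic acid (final 5 μM, 2 min) was measured by LC-MS-MS against DMSO controls. Enzyme (oCOX-1 0.1 μg or hCOX2 0.2 μg) with hematin/epinephrine cofactors at pH 8.0 was given 10 min at 37 °C with compound first. Twelve-point curves run three times gave IC50.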
# [1] = biological target: T2, human recombinant COX2 (hCOX2) (UniProt P35354); test: LCMS-based COX2 enzymatic inhibition assay (PGE2 quantification); format: biochemical; parameters: COX2 2 minutes pge2/pge2d4 area ratio Avg; other: 2 minutes; readout pge2/pge2d4 area ratio; average; COX2 2 minutes pge2/pge2d4 area ratio Avg; LLE; average LLE; COX2 2 minutes pge2 area (counts) Avg; readout pge2 area (counts); other: 2 min; "ovine COX2 (oCOX2), human recombinant COX2 (hCOX2)"; conditions: for COX2 2 minutes pge2/pge2d4 area ratio Avg. LLE / COX2 2 minutes pge2 area (counts) Avg. LLE / COX2 10 minutes pge2 area (counts) Avg. LLE: average LLE; for IC50: average
# T2 sequence (P35354 1-604): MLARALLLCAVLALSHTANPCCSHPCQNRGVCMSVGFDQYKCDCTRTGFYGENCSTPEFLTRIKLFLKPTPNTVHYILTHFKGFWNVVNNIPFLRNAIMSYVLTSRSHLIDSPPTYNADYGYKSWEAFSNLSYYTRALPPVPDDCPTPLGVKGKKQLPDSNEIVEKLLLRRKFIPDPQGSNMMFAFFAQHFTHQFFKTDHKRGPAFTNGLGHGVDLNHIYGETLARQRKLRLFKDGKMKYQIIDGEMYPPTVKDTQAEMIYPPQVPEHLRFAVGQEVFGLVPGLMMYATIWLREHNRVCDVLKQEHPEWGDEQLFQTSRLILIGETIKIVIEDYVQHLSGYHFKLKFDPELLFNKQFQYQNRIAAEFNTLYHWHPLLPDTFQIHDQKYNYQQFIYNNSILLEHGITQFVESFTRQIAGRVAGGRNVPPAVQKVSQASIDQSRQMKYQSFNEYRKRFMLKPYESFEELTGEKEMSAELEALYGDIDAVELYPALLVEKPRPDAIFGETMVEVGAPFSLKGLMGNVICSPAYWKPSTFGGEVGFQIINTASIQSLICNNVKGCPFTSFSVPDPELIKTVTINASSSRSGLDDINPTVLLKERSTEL
# Method in brief: as §1
# [2] = mouse plasma protein binding (PPB) assay; format: in vitro ADME; conditions: average, read-out: Mouse Plasma Protein Binding % Bound Avg (converted)
# Experimental: (§2) We have adapted a previously reported cyclooxygenase enzymatic assay utilizing LCMS quantification of PGE2 as the product of COX-1 and COX2 catalyzed conversion of arachidonic acid to evaluate the binding properties of newly synthesized ligands [Cao, 2011]. These optimized and miniaturized (384-well plates) LCMS-based COX-1 and COX2 enzymatic assays enabled us to quickly evaluate newly synthesized ligands for COX2 binding affinity and selectivity vs COX-1. Using a shorter ligand-enzyme incubation time in the LCMS assay (2 minutes vs 10 minutes) also permitted us to prioritize ligands with faster binding kinetics. Considering the relatively slow on-rate kinetics of known coxibs, due to their 3-step binding mechanism [Marnett, 2009], we believe that optimizing this critical parameter will be key to the successful development of a COX2 PET tracer. Using these enzymatic assays, we have evaluated>200 newly synthesized ligands against COX2 and >20 ligands against COX-1. Another critical property necessary for a good PET radiotracer is to have low non-specific binding (NSB) to increase the free fraction and maximize the signal to noise ratio. This property can be evaluated using in-vitro protein binding assays, and we have now evaluated>50 newly synthesized ligands in mouse, rat and human plasma protein binding (PPB) assays as well as >15 ligands in a mouse brain protein binding (BPB) assay.
# [3] = rat plasma protein binding (PPB) assay; format: in vitro ADME; conditions: average, read-out: Rat Plasma Protein Binding % Bound Avg (converted)
# Experimental: as §2
# [4] = Rat Plasma Protein Stability (% Remaining); format: in vitro ADME; conditions: average
# [5] = Mouse Plasma Protein Stability (% Remaining); format: in vitro ADME; conditions: average
# PBS Solubility (no DMSO) = format: physicochemical; conditions: aqueous buffer, thermodynamic from solid, average
# Rat Microsome Stability = format: in vitro ADME; conditions: rat microsomes
# [6] = Human Microsome Stability; format: in vitro ADME; conditions: human microsomes
# [7] = Mouse Microsome Stability; format: in vitro ADME; conditions: mouse microsomes
# [8] = head of this section not shown, inferred
# [9] = pge2 area (counts), head of this section not shown, inferred
# [10] = pge2 area (counts), head of this section not shown, inferred, read-out: COX1 10 minutes pge2 area (counts) Avg. IC50
# [11] = readout pge2/pge2d4 area ratio, average, read-out: COX1 10 minutes pge2/pge2d4 area ratio Avg. IC50
# [12] = 2 minutes, readout pge2/pge2d4 area ratio
# [13] = 2 minutes, readout pge2/pge2d4 area ratio, read-out: COX2 2 minutes pge2/pge2d4 area ratio Avg. IC50
# [14] = 2 minutes, readout pge2 area (counts)
# [15] = 2 minutes, readout pge2 area (counts), read-out: COX2 2 minutes pge2 area (counts) Avg. IC50
# [16] = 10 minutes, readout pge2 area (counts)
# [17] = 10 minutes, readout pge2 area (counts), read-out: COX2 10 minutes pge2 area (counts) Avg. IC50
COX1 10 minutes pge2/pge2d4 area ratio Avg. LLE (ovine COX-1 (oCOX-1); [8]),COX1 10 minutes pge2 area (counts) Avg. LLE (ovine COX-1 (oCOX-1); [9]),IC50 (ovine COX-1 (oCOX-1); [10]),IC50 (ovine COX-1 (oCOX-1); [11]),"COX2 2 minutes pge2/pge2d4 area ratio Avg. LLE [1, 12]","IC50 [1, 13]","COX2 2 minutes pge2 area (counts) Avg. LLE [1, 14]","IC50 [1, 15]","COX2 10 minutes pge2 area (counts) Avg. LLE [1, 16]","IC50 [1, 17]",Human Microsome Stability % Remaining Avg [6],Mouse Microsome Stability % Remaining Avg [7],SMILES,other results
3.046,2.996,0.342 µM,0.305 µM,3.899,43.2 nM,3.894,47.4 nM,5.561,0.932 nM,–,–,CS(=O)(=O)c1ccc(-c2cnc3ccn(Cc4cccs4)c3n2)cc1 [Compound 74],"efflux ratio (MDR1): 1; Papp A→B (MDR1; A-B, read-out: MDR1-MCKII Papp A-B): 32.2 ×10⁻⁶ cm/s; Papp B→A (MDR1; B-A, read-out: MDR1-MCKII Papp B-A): 32 ×10⁻⁶ cm/s"
–,–,–,–,5.827,19.5 nM,5.859,18.5 nM,–,–,–,–,COc1ncc(NCc2ccco2)nc1-c1ccc(S(C)(=O)=O)cc1 [Compound 43],"fraction unbound [2]: 0.046; COX1 10 minutes pge2 area (counts) Avg. LLE (ovine COX-1 (oCOX-1); readout pge2 area (counts), average LLE): 2.44; IC50 (ovine COX-1 (oCOX-1); readout pge2 area (counts), average, read-out: COX1 10 minutes pge2 area (counts) Avg. IC50): 42.7 µM; fraction unbound [3]: 0.028; Rat Plasma Protein Stability % Remaining Avg [4]: 107.3%; Mouse Plasma Protein Stability % Remaining Avg [5]: 102.6%; solubility (PBS Solubility (no DMSO)): 21 µM; Rat Microsome Stability % Remaining Avg (Rat Microsome Stability): 11.1%"
2.186,2.128,39 µM,34.2 µM,4.85,74.2 nM,4.897,85 nM,5.83,7.94 nM,54.9%,30.5%,CS(=O)(=O)c1ccc(-c2cncc(NCc3ccc(F)cc3)n2)cc1 [Compound 96],–
–,2.724,–,–,5.371,118 nM,5.44,124 nM,6.397,11.5 nM,32.4%,1.6%,CS(=O)(=O)c1ccc(-c2cncc(NCc3ccco3)n2)cc1 [Compound 120],–
–,–,–,–,5.497,213 nM,5.579,176 nM,6.4815,22.3 nM,55%,10%,CS(=O)(=O)c1ccc(-c2cncc(NCc3cccs3)n2)cn1 [Compound 141],–
